Values of other authors, collected in patent US20030013692A1, “Methods of treating neurological disorders” (priority 2001, published 2003).

Settings: nimodipine treated subarachnoid hemorrhage (SAH) patients

concentration detected in the cerebrospinal fluid: ≤ 12.5 ng/mL
SMILES: COCCOC(=O)C1=C(C)NC(C)=C(C(=O)OC(C)C)C1c1cccc([N+](=O)[O-])c1 (stereo not shown) [nimodipine, Isopropyl (2-methoxyethyl) 1,4-dihydro-2,6-dimethyl-4-(3-nitrophenyl)-3,5-pyridine-dicarboxylate]
